23 compounds from ChEMBL document CHEMBL1136383, “New fibrinolytic agents: benzothiophene derivatives as inhibitors of the t-PA-PAI-1 complex formation” (Bioorg Med Chem Lett, 2003) can be followed below.

One may read the pIC50 as the negative decadic logarithm of the IC50, by convention in mol/L. Low readings indicate a large IC50, high ones a small IC50.

pIC50: −log10 of the molar value.

Chain of Plasminogen activator inhibitor 1 (P05121 whole entry): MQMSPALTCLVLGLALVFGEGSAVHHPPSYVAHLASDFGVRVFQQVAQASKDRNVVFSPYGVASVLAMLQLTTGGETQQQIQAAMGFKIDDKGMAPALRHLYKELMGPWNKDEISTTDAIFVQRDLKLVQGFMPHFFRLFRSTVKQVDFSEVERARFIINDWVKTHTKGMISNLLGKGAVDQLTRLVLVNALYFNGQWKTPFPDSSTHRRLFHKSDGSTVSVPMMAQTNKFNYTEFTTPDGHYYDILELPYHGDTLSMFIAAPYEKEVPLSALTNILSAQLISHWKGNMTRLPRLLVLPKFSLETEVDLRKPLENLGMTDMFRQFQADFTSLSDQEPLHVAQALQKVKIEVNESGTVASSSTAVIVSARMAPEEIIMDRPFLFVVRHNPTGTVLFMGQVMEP

This assay concerns the target Plasminogen activator inhibitor 1 (Homo sapiens, UniProt P05121). Description: Inhibitory activity against plasminogen activator inhibitor 1 (PAI-1) was evaluated by inhibition of tissue plasminogen activator/PAI-1 complex formation in t-PA-induced fibrin clot lysis assay.
Compound `Cc1ccc(Oc2c(/C=C(/C(=O)O)c3ccncc3)sc3cc(OCc4ccc(-c5ccccc5)cc4)c(OCc4ccc(-c5ccccc5)cc4)cc23)cn1` gave a pIC50 of 5.61. As for `O=C(O)/C(=C/c1sc2cc(OCc3ccc(-c4ccccc4)cc3)c(OCc3ccc(-c4ccccc4)cc3)cc2c1Oc1ccc(Cl)nc1)c1ccncc1`, the figure is 5.68; as for `O=C(O)/C(=C/c1sc2cc(OCc3ccc(-c4ccccc4)cc3)c(OCc3ccc(-c4ccccc4)cc3)cc2c1Oc1cccnc1)c1ccncc1`, 5.62; as for `O=C(O)/C(=C/c1sc2cc(OCc3ccc(-c4ccccc4)cc3)c(OCc3ccc(-c4ccccc4)cc3)cc2c1Oc1ccc2ncccc2c1)c1ccncc1`, 5.22.

`O=C(O)/C(=C/c1sc2cc(OCc3cccc(-c4ccccc4)c3)c(OCc3cccc(-c4ccccc4)c3)cc2c1Oc1ccc(Cl)cc1)c1ccncc1` gave a pIC50 of 6.66. With `O=C(O)/C(=C/c1sc2cc(OCc3ccc(S(=O)(=O)c4ccccc4)cc3)c(OCc3ccc(S(=O)(=O)c4ccccc4)cc3)cc2c1Oc1ccc(Cl)cc1)c1ccncc1` the figure was 6.11; with `O=C(O)/C(=C/c1sc2cc(OCc3ccc(Cc4ccccc4)cc3)c(OCc3ccc(Cc4ccccc4)cc3)cc2c1Oc1ccc(Cl)cc1)c1ccncc1`, 6.57. `O=C(O)/C(=C/c1sc2cc(OCc3ccc(-c4ccccc4)cc3)c(OCc3ccc(-c4ccccc4)cc3)cc2c1Oc1ccc(Oc2ccncc2)cc1)c1ccncc1` had a pIC50 of 4.97.

Consider `COC(=O)/C(=C/c1sc2cc(OCc3ccccc3)c(OCc3ccccc3)cc2c1Oc1ccc(Cl)cc1)c1ccncc1`, for which the pIC50 was 6.33. With `CN(C)CCSc1ccc(/C=c2\[nH]c(=O)/c(=C/c3ccccc3)[nH]c2=O)cc1` the figure was 4.29; with `Cc1cc(Oc2c(/C=C(/C(=O)O)c3ccncc3)sc3cc(OCc4ccc(-c5ccccc5)cc4)c(OCc4ccc(-c5ccccc5)cc4)cc23)ccc1Cl`, 6.32; with `Cc1cc(Oc2c(/C=C(/C(=O)O)c3ccncc3)sc3cc(OCc4ccc(-c5ccccc5)cc4)c(OCc4ccc(-c5ccccc5)cc4)cc23)cc(C)c1Cl`, 5.96.

On to `O=C(O)/C(=C/c1sc2cc(OCc3ccc(Sc4ccccc4)cc3)c(OCc3ccc(Sc4ccccc4)cc3)cc2c1Oc1ccc(Cl)cc1)c1ccncc1`, for which the pIC50 was 7.41. With `O=C(O)/C(=C/c1sc2cc(OCc3ccc(-c4ccccc4)cc3)c(OCc3ccc(-c4ccccc4)cc3)cc2c1Oc1ccccc1)c1ccncc1` the figure was 7.00. On to `CN(C)CCSc1ccc(/C=c2\[nH]c(=O)/c(=C/c3ccccc3)[nH]c2=O)s1`, for which the pIC50 is 3.97. With `O=C(O)/C(=C/c1sc2cc(OCc3ccc(-c4ccccc4)cc3)c(OCc3ccc(-c4ccccc4)cc3)cc2c1Oc1ccc(F)c(F)c1)c1ccncc1` the figure was 6.23. For the compound `O=C(O)/C(=C/c1sc2cc(OCc3ccccc3-c3ccccc3)c(OCc3ccccc3-c3ccccc3)cc2c1Oc1ccc(Cl)cc1)c1ccncc1`, the pIC50 was 4.97. With `COc1ccc(-c2ccc(COc3cc4sc(/C=C(/C(=O)O)c5ccncc5)c(Oc5ccc(Cl)cc5)c4cc3OCc3ccc(-c4ccc(OC)cc4)cc3)cc2)cc1` the figure was 6.85.

In the case of `O=C(O)/C(=C/c1sc2cc(OCc3ccc(Oc4ccccc4)cc3)c(OCc3ccc(Oc4ccccc4)cc3)cc2c1Oc1ccc(Cl)cc1)c1ccncc1`, the pIC50 is 7.00. As for `O=C(O)/C(=C/c1sc2cc(OCc3ccc(-c4ccccc4)cc3)c(OCc3ccc(-c4ccccc4)cc3)cc2c1Oc1ccc(Cl)c(F)c1)c1ccncc1`, the pIC50 is 5.64. With `O=C(O)/C(=C/c1sc2cc(OCc3ccc(-c4ccccc4)cc3)c(OCc3ccc(-c4ccccc4)cc3)cc2c1Oc1cccc(F)c1)c1ccncc1` the figure was 6.62; with `O=C(O)/C(=C/c1sc2cc(OCc3ccc(-c4ccccc4)cc3)c(OCc3ccc(-c4ccccc4)cc3)cc2c1Oc1ccc(-n2ccnc2)cc1)c1ccncc1`, 5.54. As for `COc1ccc(/C=c2\[nH]c(=O)/c(=C/c3ccccc3)[nH]c2=O)cc1`, the figure is 4.23.
